The text below walks through data of patent US9446019B2, “Sparstolonin B based pharmaceutical agent for neuroblastoma treatment” (University of South Carolina, priority 2013, dated 2016).

In the experiment the test system is N-myc in IMR-32, NGP and SK-N-BE(2) cells. The experiment in a line: N-myc protein level by Western blotting. The format is cell-based, human. How it is done: After treatment with SsnB, cells were collected, washed with 1×PBS, and lysed with 1× cell lysis buffer (Cell Signaling Technology, Danvers, Mass.) containing phenylmethylsulfonyl fluoride (PMSF) and protease inhibitors (aprotinin and leupeptin) for 30 min on ice, and centrifuged at 12000×rpm for 10 min at 4° C. Supernatant (total cell protein) was collected and stored at −80° C. Protein concentration was determined by bicinchoninic acid method using BCA protein assay kit (Pierce/ThermoScientific, Waltham, Mass.). Equal amount of proteins were diluted with 5× Laemmli samples loading buffer and boiled for five minutes. The proteins were subjected to sodium dodecyl sulfate (SDS)-polyacrylamide gel electrophoresis and analyzed by Western blots. Briefly, after electrophoresis, proteins were transferred on polyvinylidene difluoride (PVDF) membrane at 100 volt for 3 h in cold room. […] Signals were detected by chemiluminiscence detection kit (Pierce/Thermo Fisher Scientific, Rockford, Ill.). […]
The level of N-myc proteins was evaluated from 2 days (IMR-32), 3 days (NGP cells) or 4 days (SK-N-BE(2) cells) SsnB-treated N-myc amplified neuroblastoma cells by Western blotting, and protein signal intensity was measured by ImageJ programme and plotted. […]

On to `O=c1occ2c3c(ccc(O)c13)Oc1ccc(O)cc1-2` [SsnB, 8,5′-dihydroxy-4-phenyl-5,2′-oxidoisocoumarin], for which, for the setting “SsnB 1 μM, nonsignificant vs control”, the “reduction in N-myc protein expression” value is listed as “not observed”. Moreover, where the note is “SsnB 10 μM, 2 days (IMR-32), 3 days (NGP), 4 days (SK-N-BE(2))”, the N-myc protein expression result is recorded as “inhibited the expression of N-myc protein”.
